According to US20100075907A1, “NEUROMEDIN U RECEPTOR AGONISTS AND USES THEREOF” (priority 2006, published 2010):
Each block holds one compound with its values, some of them ahead of it. Non-standard residues stand in square brackets, D forms with d. Residues, ends and D or L forms follow the SMILES beside them. *: point of attachment. X1 = CC(C)CCC[C@@H](C)[C@H]1CC[C@H]2[C@@H]3CC=C4C[C@@H](OC(=O)C*)CC[C@]4(C)[C@H]3CC[C@]12C; Succinimide(1-Et,3-yl) = CCN1C(=O)CC(*)C1=O

Experiments:
mouse NMUR1-ATG = target: T1, mouse NMUR1-ATG (Mus musculus, UniProt O55040); assay: FLIPR calcium mobilization assay, mouse NMUR1-ATG; format: cell-based; set-up: expressed in transfected cells; host or cells: FLP-In CHO or HEK-293 FLP-In cells (pcDNA5); settings: for IC50: functional data
T1 sequence (O55040 1-428): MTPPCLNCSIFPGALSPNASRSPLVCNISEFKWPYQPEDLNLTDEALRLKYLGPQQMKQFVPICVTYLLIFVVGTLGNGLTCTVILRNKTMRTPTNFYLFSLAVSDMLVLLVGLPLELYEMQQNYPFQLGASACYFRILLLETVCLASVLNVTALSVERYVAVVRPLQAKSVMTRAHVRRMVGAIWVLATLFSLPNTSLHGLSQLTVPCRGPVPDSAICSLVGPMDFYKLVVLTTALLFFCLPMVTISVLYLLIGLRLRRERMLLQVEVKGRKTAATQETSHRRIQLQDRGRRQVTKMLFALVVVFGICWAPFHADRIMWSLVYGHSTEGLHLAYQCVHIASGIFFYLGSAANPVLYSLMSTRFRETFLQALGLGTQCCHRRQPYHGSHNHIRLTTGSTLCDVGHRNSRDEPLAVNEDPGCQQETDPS
Excerpt: (§1) Human, mouse or rat cDNAs encoding NMUR1 or NMUR2 (as described in Howard et al. Nature 406: 70-74 (2000) were subcloned in pcDNA5 (Invitrogen) and transfected into FLP-In CHO cells and HEK-293 FLP-In cells purchased from Invitrogen (Carlsbad, Calif.) using lipofectamine (Invitrogen). The Flp-In system allows integration and expression of a particular gene of interest at a specific genomic location utilizing the Flp recombinase from yeast. The transfected cells were selected by growth in medium containing 200 μg/mL hygromycin (Invitrogen). Populations were frozen at early passage numbers, and these stocks were used for further studies. Stable clones that expressed the mRNAs were identified functionally by FLIPR as well as by RT-PCR. […] Two different rodent NMUR1 cell lines were thus generated: one with the codon as predicted from the genomic databases and another cell line with an engineered methionine (ATG) as the start codon. Additionally, stable cell lines expressing the human receptors were generated in HEK-293/aeq17 cells which stably express the aequorin gene under the CMV promoter. The human NMUR2 cDNA was cloned into pcDNA3.1 and human NMUR1 was subcloned into pIRES-puro (Clontech, Mountain View, Calif.), after transfection cells were selected in media containing G418 and either hygromycin (NMUR2) or puromycin (NMUR1).
(§2) The NMU receptors signal primarily through Gαq/11 proteins; therefore calcium mobilization assays can be utilized for functional activity.
(§3) Stable cell lines expressing human and or rodent NMUR1 or human NMUR2 receptors were plated at a density of 12,000 cells per well overnight on poly-lysine coated 384-well black-walled plates. The following day, the media was removed from the plates and the cells were subsequently loaded with Fluo-3 (Molecular Probes), a calcium sensitive dye, diluted in FLIPR buffer (1× Hank's buffered saline containing 20 mM HEPES, 0.1% BSA, 2.5 mM probenecid (Sigma) and 1.6 mM TR40). All reagents are from Invitrogen unless otherwise noted. Peptide stocks were resuspended in DMSO at a stock concentration of 2 mM and diluted in FLIPR buffer on the day of the experiment to a 4 μM working stock solution.
(§4) After a 90 minute incubation at room-temperature, cell plates were loaded onto a FLIPR (Molecular Devices) to monitor cellular fluorescence (excitation=488 nm; emission=540 nm) before and after compound/peptide addition. Eight to twelve point dose responses were tested on NMUR-expressing cell lines using FLIPR with 1 μM peptide as the highest dose. The response after peptide addition was taken as the maximum fluorescence units minus the fluorescence immediately prior to stimulation for each well. EC50 values were calculated using GraphPad Prism (San Diego, Calif.) software.
In vitro responses of Neuromedin U receptor agonists (NMU1 to NMU25) in the FLIPR assay for human (Table 3), mouse (Table 4) and rat (Table 5) NMUR1 and NMUR2. EC50s are reported in nM values. Percent activity refers to the maximum response at 1 μM compared to the hNMU-25 response at the same concentration. NT=not tested.

hNMUR2 = hNMUR2 (Homo sapiens, UniProt Q9GZQ4); assay: In vitro functional assay, HEK-hR2 cells; format: cell-based; set-up: expressed in transfected cells; host or cells: FLP-In CHO or HEK-293 FLP-In cells (pcDNA5); HEK-293/aeq17 lines (pcDNA3.1) were also made; % Activity: concentration or dose not given beside the values
hNMUR2, sequence (Q9GZQ4 whole entry): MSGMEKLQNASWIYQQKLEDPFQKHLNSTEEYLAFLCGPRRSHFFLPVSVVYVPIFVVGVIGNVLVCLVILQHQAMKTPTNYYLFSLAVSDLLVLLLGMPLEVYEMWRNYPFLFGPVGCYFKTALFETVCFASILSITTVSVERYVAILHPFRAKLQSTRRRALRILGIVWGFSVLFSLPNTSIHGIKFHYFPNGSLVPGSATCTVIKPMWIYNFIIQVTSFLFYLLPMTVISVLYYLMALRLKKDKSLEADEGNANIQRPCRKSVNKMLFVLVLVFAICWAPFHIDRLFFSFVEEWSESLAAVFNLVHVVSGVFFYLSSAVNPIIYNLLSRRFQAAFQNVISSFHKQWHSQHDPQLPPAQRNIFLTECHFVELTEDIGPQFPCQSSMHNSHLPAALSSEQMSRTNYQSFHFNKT
Excerpt: as §1, §2, §3, §4
In addition to FLIPR, NMU receptor function can also be evaluated using an aequorin assay. Stable cell lines expressing the aequorin jelly fish gene can be used to report the activation of GPCRs by monitoring intracellular calcium mobilization. The objective is to identify compounds which specifically stimulate aequorin bioluminescence. Calcium-dependent luminescence is generated by the treatment of cells with the coelenterate luciferin, coelenterazine. Briefly, confluent monolayers of HEK-293/aeq 17 cells expressing hNMUR1 or hNMUR2 are “charged” with coelenterazine (Molecular Probes, Carlsbad, Calif.). Confluent T75 flasks are rinsed with media containing 300 μM glutathione and 0.1% FBS. Cells are incubated at 37° C. for one hour in 8 mL media, 0.1% FBS, 300 μM glutathione, and 20 μM coelenterazine. T75 flasks are subsequently rinsed with 6 mL ECB buffer (140 mM NaCl, 20 mM KCl, 20 mM HEPES, 5 mM glucose, 1 mM MgCl, 1 mM CaCl2, 0.1 mg/mL BSA, PH 7.3-7.4). Cells are removed from the flask in ECB buffer, pelleted, and resuspended at a density of 2×10^5 cells/mL. Agonists are added to the cells and activity is determined using a luminometer.

[1] = maximum response at 1 μM compared to hNMU-25, mouse NMUR1-ATG

Compound: CC(C)C[C@@H](NC(=O)[C@H](Cc1ccccc1)NC(=O)[C@H](Cc1ccc(O)cc1)NC(=O)CNC(=O)[C@H](CCCNC(=N)N)NC(=O)[C@H](CO)NC(=O)[C@H](CCC(N)=O)NC(=O)[C@H](CO)NC(=O)[C@H](C)NC(=O)[C@H](Cc1ccccc1)NC(=O)[C@@H]1CCCN1C(=O)[C@H](CO)NC(=O)[C@H](CCC(N)=O)NC(=O)[C@H](Cc1ccccc1)NC(=O)[C@H](CCC(=O)O)NC(=O)[C@H](CCC(=O)O)NC(=O)[C@H](CC(=O)O)NC(=O)[C@@H](NC(=O)[C@H](CCCNC(=N)N)NC(=O)[C@@H](N)Cc1ccccc1)C(C)C)C(=O)N[C@@H](Cc1c[nH]c2ccccc12)C(=O)N[C@@H](CCCNC(=N)N)C(=O)N1CCC[C@H]1C(=O)N[C@@H](CCCNC(=N)N)C(=O)N[C@@H](CC(N)=O)C(N)=O [Agonist H] (H-FRVDEEFQSPFASQSRGYF[dL]WRPRN-NH2; N-terminus assumed)
IC50 (mouse NMUR1-ATG; mouse R1-ATG): 25 nM
% Activity (mouse NMUR1-ATG; functional, mouse R1-ATG, relative to native hNMU responses): 90%
% Activity (hNMUR2; Table 8, HEK-hR2, functional): 0%
IC50 (hNMUR2; Table 8, HEK-hR2, functional): > 1000 nM

% Activity (mouse NMUR1-ATG; [1]): 100%
Compound: CCN1C(=O)CC(SC[C@H](NC(C)=O)C(=O)N[C@@H](Cc2ccccc2)C(=O)N[C@@H](CCCNC(=N)N)C(=O)N[C@H](C(=O)N[C@@H](CC(=O)O)C(=O)N[C@@H](CCC(=O)O)C(=O)N[C@@H](CCC(=O)O)C(=O)N[C@@H](Cc2ccccc2)C(=O)N[C@@H](CCC(N)=O)C(=O)N[C@@H](CO)C(=O)N2CCC[C@H]2C(=O)N[C@@H](Cc2ccccc2)C(=O)N[C@@H](C)C(=O)N[C@@H](CO)C(=O)N[C@@H](CCC(N)=O)C(=O)N[C@@H](CO)C(=O)N[C@@H](CCCNC(=N)N)C(=O)NCC(=O)N[C@@H](Cc2ccc(O)cc2)C(=O)N[C@@H](Cc2ccccc2)C(=O)N[C@@H](CC(C)C)C(=O)N[C@@H](Cc2ccccc2)C(=O)N[C@@H](CCCNC(=N)N)C(=O)N2CCC[C@H]2C(=O)N[C@@H](CCCNC(=N)N)C(=O)N[C@@H](CC(N)=O)C(N)=O)C(C)C)C1=O (stereo partly drawn) [NMU8] (Ac-C(Succinimide(1-Et,3-yl))FRVDEEFQSPFASQSRGYFLFRPRN-NH2)

Compound: CC(=O)N[C@@H](CSCC(=O)O[C@H]1CC[C@@]2(C)C(=CC[C@H]3[C@@H]4CC[C@H]([C@H](C)CCCC(C)C)[C@@]4(C)CC[C@@H]32)C1)C(=O)NCC(=O)N[C@@H](Cc1ccc(O)cc1)C(=O)N[C@@H](Cc1ccccc1)C(=O)N[C@@H](CC(C)C)C(=O)N[C@@H](Cc1ccccc1)C(=O)N[C@@H](CCCNC(=N)N)C(=O)N1CCC[C@H]1C(=O)N[C@@H](CCCNC(=N)N)C(=O)N[C@@H](CC(N)=O)C(N)=O [NMU11] (Ac-C(X1)GYFLFRPRN-NH2)
% Activity (mouse NMUR1-ATG; [1]): 81.3%

Compound: H-FRVDEEFQSPFASQSRGYFLFRPRN-NH2 [hNMU-25, reference compound]
IC50 (mouse NMUR1-ATG; mouse R1-ATG): 0.9 nM
% Activity (hNMUR2; Table 9, HEK-hR2, functional): 100%
EC50 (hNMUR2; Table 9, HEK-hR2, functional): 1.5 nM
